Reference: patent US7998965B2, “Glutamate aggrecanase inhibitors” (Wyeth LLC, priority 2005, dated 2011)

How the values were obtained:
[1] = biological target: T1, purified recombinant human Aggrecanase-1 (rAgg1) (Homo sapiens, UniProt O75173); experiment: In vitro fluorescence screen for Aggrecanase-1 inhibitors; format: biochemical; conditions: Table 1; for IC50: read-out: Agg1 IC50; for Ki: enzyme not given, column follows Agg1 IC50, read-out: Ki
T1 sequence (O75173 213-837): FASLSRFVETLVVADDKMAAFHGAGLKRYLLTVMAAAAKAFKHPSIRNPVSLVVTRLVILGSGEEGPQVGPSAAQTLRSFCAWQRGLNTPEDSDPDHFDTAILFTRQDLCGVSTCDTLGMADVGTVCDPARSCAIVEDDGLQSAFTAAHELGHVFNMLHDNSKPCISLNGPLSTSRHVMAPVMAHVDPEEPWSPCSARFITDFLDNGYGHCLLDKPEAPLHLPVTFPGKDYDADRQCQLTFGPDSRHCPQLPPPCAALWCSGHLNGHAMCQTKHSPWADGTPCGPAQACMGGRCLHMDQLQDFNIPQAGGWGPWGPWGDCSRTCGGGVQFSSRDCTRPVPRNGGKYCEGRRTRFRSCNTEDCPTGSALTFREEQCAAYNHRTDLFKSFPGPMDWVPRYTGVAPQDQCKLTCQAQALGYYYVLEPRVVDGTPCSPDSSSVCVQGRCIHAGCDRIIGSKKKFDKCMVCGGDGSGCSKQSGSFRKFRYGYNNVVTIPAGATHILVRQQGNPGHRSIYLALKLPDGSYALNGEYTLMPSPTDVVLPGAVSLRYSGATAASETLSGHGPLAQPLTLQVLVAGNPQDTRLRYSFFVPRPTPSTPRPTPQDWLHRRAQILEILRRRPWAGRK

[2] = biological target: T2, purified recombinant human Aggrecanase-2 (Ag2t-Phe628-Strep) (Homo sapiens, UniProt Q9UNA0); experiment: In vitro fluorescence screen for Aggrecanase-2 inhibitors; format: biochemical; conditions: Table 1; read-out: Agg 2 IC50
T2 construct: the form used is denoted as Ag2t-Phe628-Strep (MW=41,737)
T2 sequence (Q9UNA0 262-628): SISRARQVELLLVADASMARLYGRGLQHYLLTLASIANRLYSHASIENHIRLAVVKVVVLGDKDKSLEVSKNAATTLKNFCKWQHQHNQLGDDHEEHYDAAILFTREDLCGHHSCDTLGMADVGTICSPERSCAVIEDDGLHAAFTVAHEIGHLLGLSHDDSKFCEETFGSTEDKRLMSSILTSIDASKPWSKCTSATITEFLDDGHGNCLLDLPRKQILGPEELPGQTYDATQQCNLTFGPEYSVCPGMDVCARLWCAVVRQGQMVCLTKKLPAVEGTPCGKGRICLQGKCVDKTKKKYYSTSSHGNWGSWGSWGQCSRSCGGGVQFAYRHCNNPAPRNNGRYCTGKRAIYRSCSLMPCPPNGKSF

[3] = biological target: T3, recombinant human catalytic domain of MMP-13 (Homo sapiens, UniProt P45452); experiment: In vitro fluorescence assay of MMP-13 activity; format: biochemical; conditions: Table 1; unit inferred
T3 construct: catalytic domain of MMP-13 (165 amino acids, residues 104-268, 19 kDa)

[4] = biological target: T4, recombinant human catalytic domain of MMP-14 (Homo sapiens, UniProt P50281); experiment: In vitro fluorescence assay of MMP-14 activity; format: biochemical; conditions: Table 1; unit inferred
T4 construct: 177 amino acids corresponding to Tyr89-Gly265 of mature human enzyme; purchased Chemicon International, Inc. CC1041

[5] = tested on: bovine articular cartilage treated with Interleukin 1 alpha (IL-1α); experiment: Bovine articular cartilage explant cultures: inhibition of degradation of proteoglycan; format: cell-based; conditions: inhibitory effect expressed as percentage, concentration not printed
Summary of the method: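 Bovine metacarpal cartilage discs (6 mm), equilibrated in serum-free DMEM-based medium, were treated with 5 ng/ml IL-1 plus compound (working solutions 0.1-10 μg/ml), with medium collected and replaced on days 1, 2 and 3. Released proteoglycan was measured by DMMB absorbance at 520 nm against chondroitin sulphate standards, expressed as μg per mg cartilage, and inhibition given as percentage.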

MMP-1 = biological target: T5, MMP-1 (Homo sapiens, UniProt P03956); experiment: MMP-1 of Table 1; format: biochemical; conditions: for IC50: unit inferred; for MMP-1: unit not given
T5 sequence (P03956 100-469): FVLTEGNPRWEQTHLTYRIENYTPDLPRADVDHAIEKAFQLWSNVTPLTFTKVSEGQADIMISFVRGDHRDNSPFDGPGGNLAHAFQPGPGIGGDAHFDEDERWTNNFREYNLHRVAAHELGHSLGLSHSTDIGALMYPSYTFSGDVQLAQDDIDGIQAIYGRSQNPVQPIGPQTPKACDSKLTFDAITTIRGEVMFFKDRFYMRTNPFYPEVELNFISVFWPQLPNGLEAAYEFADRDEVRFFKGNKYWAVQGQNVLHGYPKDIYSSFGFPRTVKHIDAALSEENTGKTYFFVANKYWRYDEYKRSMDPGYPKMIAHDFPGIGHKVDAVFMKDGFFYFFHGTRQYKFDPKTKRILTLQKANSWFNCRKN

recombinant human MMP-2 = biological target: T6, recombinant human MMP-2 (Homo sapiens, UniProt P08253); experiment: In vitro fluorescence assay of MMP-2 activity
T6 sequence (P08253 110-660): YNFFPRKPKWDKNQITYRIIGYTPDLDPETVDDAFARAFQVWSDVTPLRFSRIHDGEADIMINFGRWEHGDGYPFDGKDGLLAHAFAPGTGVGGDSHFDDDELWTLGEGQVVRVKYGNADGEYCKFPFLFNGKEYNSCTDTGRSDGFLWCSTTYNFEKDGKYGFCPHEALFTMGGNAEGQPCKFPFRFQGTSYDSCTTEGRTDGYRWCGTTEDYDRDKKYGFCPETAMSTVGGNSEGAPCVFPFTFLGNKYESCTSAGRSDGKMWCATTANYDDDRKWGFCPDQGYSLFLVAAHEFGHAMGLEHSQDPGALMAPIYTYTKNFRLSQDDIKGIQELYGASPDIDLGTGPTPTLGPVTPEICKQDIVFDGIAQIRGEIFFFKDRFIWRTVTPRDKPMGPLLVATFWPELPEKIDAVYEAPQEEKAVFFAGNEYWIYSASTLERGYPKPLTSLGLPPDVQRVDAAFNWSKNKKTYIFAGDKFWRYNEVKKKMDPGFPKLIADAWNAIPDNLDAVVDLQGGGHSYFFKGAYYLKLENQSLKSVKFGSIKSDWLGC

[6] = Table 1, first of two columns headed bovine
[7] = Table 1, second of two columns headed bovine

Row | IC50 [1] | IC50 [2] | IC50 [3] | IC50 [4] | IC50 (MMP-1) | IC50 (recombinant human MMP-2) | Ki [1] | MMP-1 (MMP-1) | Compound | bovine [5, 6] | bovine [5, 7]
1 | 0.46 µM | 1.9 µM | ~50 µM | ~25 µM | > 100 µM | 5.6 µM |  |  | O=C(O)CC[C@H](NC(=O)c1ccc(-c2ccccc2)cc1)C(=O)NC1CC1 [Example 8B, N^2-(1,1′-biphenyl-4-ylcarbonyl)-N^1-cyclopropyl-L-α-glutamine] | 54% | 22%
2 | 0.11 µM | 1.2 µM | ~50 µM | ~25 µM | > 100 µM | 6 µM |  |  | CCCCNC(=O)[C@H](CCC(=O)O)NC(=O)c1ccc(-c2ccccc2)cc1 [Example 8C, N^2-(1,1′-biphenyl-4-ylcarbonyl)-N^1-butyl-L-α-glutamine] | 68% | 34%
3 | 0.022 µM | 0.121 µM | ~22 µM | ~25 µM |  | 5.65 µM | 0.019 µM | no inh | COc1cc(CNC(=O)[C@H](CCC(=O)O)NC(=O)c2ccc(-c3ccccc3)cc2)cc(OC)c1 [Example 8CC, N^2-(1,1′-biphenyl-4-ylcarbonyl)-N^1-(3,5-dimethoxybenzyl)-L-α-glutamine] | 94% | 71%
4 | 0.094 µM | 0.93 µM | ~22 µM | 16.2 µM |  | 4.58 µM |  | no inh | Cc1ccc(CNC(=O)[C@H](CCC(=O)O)NC(=O)c2ccc(-c3ccccc3)cc2)cc1C [Example 8DD, N^2-(1,1′-biphenyl-4-ylcarbonyl)-N^1-(3,4-dimethylbenzyl)-L-α-glutamine] | 89% | 50%
5 | 0.09 µM | 0.746 µM | ~25 µM | ~25 µM | > 200 µM | 3.7 µM |  |  | O=C(O)CC[C@H](NC(=O)c1ccc(-c2ccccc2)cc1)C(=O)NC1CCCCCCC1 [Example 8E, N^2-(1,1′-biphenyl-4-ylcarbonyl)-N^1-cyclooctyl-L-α-glutamine] | 79% | 34%
6 | 0.03 µM | 0.304 µM | ~22 µM | ~25 µM | > 200 µM | 5.63 µM | 0.012 µM |  | COc1ccc(CNC(=O)[C@H](CCC(=O)O)NC(=O)c2ccc(-c3ccccc3)cc2)cc1OC [Example 8F, N^2-(1,1′-biphenyl-4-ylcarbonyl)-N^1-(3,4-dimethoxybenzyl)-L-α-glutamine] | 81% | 56%
7 | 0.08 µM | 0.614 µM | ~50 µM | ~25 µM | > 100 µM | ~50 µM |  |  | O=C(O)CC[C@H](NC(=O)c1ccc(-c2ccccc2)cc1)C(=O)NC1CCCC1 [Example 8G, N^2-(1,1′-biphenyl-4-ylcarbonyl)-N^1-cyclopentyl-L-α-glutamine] | 76% | 39%
8 | 0.2 µM | 0.266 µM | ~50 µM | ~25 µM | > 100 µM | 3.31 µM |  |  | O=C(O)CC[C@H](NC(=O)c1ccc(-c2ccccc2)cc1)C(=O)NC1C2CC3CC(C2)CC1C3 (stereo partly drawn) [Example 8H, N^1-2-adamantyl-N^2-(1,1′-biphenyl-4-ylcarbonyl)-L-α-glutamine] | 85% | 67%
9 | 0.045 µM | 1.1 µM | 17 µM | > 200 µM | > 200 µM | 27 µM | 0.033 µM |  | O=C(O)CC[C@H](NC(=O)c1ccc(-c2ccccc2)cc1)C(=O)NCc1cccc(I)c1 [Example 8JJ, N^2-(1,1′-biphenyl-4-ylcarbonyl)-N^1-(3-iodobenzyl)-L-α-glutamine] | 70% | 17%
10 | 0.054 µM | 0.3 µM | 30 µM | > 200 µM | > 200 µM | > 20 µM | 0.054 µM |  | CCCCCCCNC(=O)[C@H](CCC(=O)O)NC(=O)c1ccc(-c2ccccc2)cc1 [Example 8JJJ, N^2-(1,1′-biphenyl-4-ylcarbonyl)-N^1-heptyl-L-α-glutamine] | 74% | 26%
11 | 0.055 µM | 0.189 µM | ~50 µM | 21.5 µM | > 100 µM | 10.5 µM |  |  | COc1ccc(CCNC(=O)[C@H](CCC(=O)O)NC(=O)c2ccc(-c3ccccc3)cc2)cc1OC [Example 8L, N^2-(1,1′-biphenyl-4-ylcarbonyl)-N^1-[2-(3,4-dimethoxyphenyl)ethyl]-L-α-glutamine] | 87% | 79%
12 | 0.12 µM | 0.856 µM | ~50 µM | 13 µM | > 100 µM | 8 µM |  |  | COc1ccc(CCNC(=O)[C@H](CCC(=O)O)NC(=O)c2ccc(-c3ccccc3)cc2)cc1 [Example 8M, N^2-(1,1′-biphenyl-4-ylcarbonyl)-N^1-[2-(4-methoxyphenyl)ethyl]-L-α-glutamine] | 85% | 17%
13 | 0.1 µM | 1.75 µM | 14 µM | > 50 µM | > 50 µM | > 10 µM | 0.219 µM |  | O=C(O)CC[C@H](NC(=O)c1ccc(-c2ccccc2)cc1)C(=O)NCc1ccc(F)c(C(F)(F)F)c1 [Example 8NNN, N^2-(1,1′-biphenyl-4-ylcarbonyl)-N^1-[4-fluoro-3-(trifluoromethyl)benzyl]-L-α-glutamine] | 60% | 0%
14 | 0.075 µM | 1.3 µM | 31.4 µM | ~22 µM |  | 5 µM | 0.082 µM | no inh | Cc1cccc(CNC(=O)[C@H](CCC(=O)O)NC(=O)c2ccc(-c3ccccc3)cc2)c1 [Example 8O, N^2-(1,1′-biphenyl-4-ylcarbonyl)-N^1-(3-methylbenzyl)-L-α-glutamine] | 69% | 34%
